# Active and inactive are the calls of the source. The rule behind the calls is not given here.
# Target: Toxin B (TcdB) glycohydrolase, Clostridioides difficile 630
# Assay: TcdB glycohydrolase inhibitors, dose response, biochemical, cherry-pick, plate reader (AID 720512)
# Details: recombinant TcdB glycohydrolase activity
SMILES,"activity change, negative = inhibition (at 19.5 µM (top of the series))",also measured
Cc1[nH]c(=O)c(C#N)c2c1CCCC2,inactive,
CCOC(=O)Nc1ccc(OC(=O)Oc2ccc(NC(=O)OCC)cc2)cc1,inactive,
CN1CCN(C(CNC(=O)c2ccc(Br)o2)c2ccc(F)cc2)CC1 (stereo not given),inactive,
CCOc1ccccc1-n1c(C)nc2cc(C(=O)O)ccc21,inactive,
Cn1ncc(Cl)c1C(=O)N/N=C/c1cccc(OC2CSC2)c1,inactive,
CC(C)Sc1nnc(NC(=O)c2ccco2)s1,inactive,
Cc1ccc(C)c2nc(Cl)c(C3NC(=O)c4ccccc4N3)cc12 (stereo not given),inactive,
CN(C)c1ccc(/C=C/c2cccc[n+]2[O-])cc1,inactive,
COC(=O)C[C@H]1CC[C@@H]2[C@@H](COc3ccc(NC(=O)c4cccc(OC)c4)cc3C(=O)N2C)O1,inactive,
NS(=O)(=O)c1cccc(NC(=O)c2ccc(NS(=O)(=O)c3cccc([N+](=O)[O-])c3)cc2)c1,inactive,
CN(C)c1ccc(NC(=O)/C=C/c2c(Cl)cccc2Cl)cc1,inactive,
CCCCCCCN1C(N(C)C)=NC[C@@H]1Cc1ccccc1,inactive,
OCC[C@H]1C[C@H](O)[C@@H](O)[C@@]2(Cc3ccccc3CO2)O1,inactive,
COCC(=O)N1CC[C@@H]2[C@H]1c1cc(-c3ccc(F)cc3)ccc1N(C)[C@H]2CO,inactive,
COc1cccc(/C=C/c2onc(C)c2S(=O)(=O)N2CCC(C(=O)NC3CCCCCC3)CC2)c1,inactive,
O=C(Nc1ccc(O)cc1)C1CCCN1S(=O)(=O)c1ccc(F)cc1 (stereo not given),inactive,
CCNC(=O)C[C@H]1CC[C@@H]2[C@H](COc3ccc(NC(=O)c4ccc5c(c4)OCO5)cc3C(=O)N2C)O1,,AC50: > 42 µM (inactive)
CC(/C=N/n1c(-c2ccncc2)n[nH]c1=S)=C\c1ccco1,inactive,
N#CCCN(C(=O)COC(=O)c1cc(=O)c2ccccc2o1)c1ccccc1,inactive,
Cc1cccc(OCCC(=O)NCC(=O)Nc2cccc(C)c2C)c1,,AC50: > 39 µM (inactive)
O=C1CSC(=Nc2ccc(O)cc2)N1,inactive,
Cc1ccc(C2=NS(=O)(=O)N(C)C(C(=O)NC(C)c3ccccc3)=C2)cc1 (stereo not given),inactive,
COc1cccc(CC(=O)OCC(=O)Nc2c(C)nn(-c3ccccc3)c2C)c1,inactive,

SMILES,"activity change, negative = inhibition (at 19.5 µM (top of the series))",also measured
CC(C)=CCOc1c2occc2cc2ccc(=O)oc12,inactive,
COCCN(C(=O)C(C)C)c1nnc(-c2ccc(C(C)(C)C)cc2)s1,inactive,
O=C(C[C@H]1CC[C@@H]2[C@H](COC[C@@H](O)CN2C(=O)c2ccccn2)O1)NC1CCC1,inactive,
O=C(Nc1cc(S(=O)(=O)N2CCOCC2)ccc1N1CCOCC1)c1ccccc1Cl,inactive,
COc1ccccc1C=C1SC(=S)NC1=O,inactive,
CC(=O)C1=CCC(c2ccc(C)cc2)N(S(=O)(=O)c2ccc(C)cc2)C1 (stereo not given),inactive,
COc1ccc(C2=NS(=O)(=O)N(C)C(C(=O)N(C)Cc3ccccc3)=C2)cc1,inactive,
NC(=O)NN=C1CC2CC1C1C=CCC21 (stereo not given),inactive,
O=C(O)c1cc(NS(=O)(=O)c2ccc(NC3CCCCC3)c([N+](=O)[O-])c2)cc(C(=O)O)c1,inactive,
C[C@H]1CN([C@@H](C)CO)S(=O)(=O)c2ccc(-c3ccncc3)cc2O[C@@H]1CN(C)Cc1ccc(Oc2ccccc2)cc1,inactive,
Cc1cc(C)cc(N=C2NC(=O)CS2)c1,inactive,
COc1ccc2cc3c(nc2c1)OCC3,inactive,
CC(OC(=O)[C@@H](NC(=O)OCc1ccccc1)C(C)C)C(=O)Nc1ccc(N2CCOCC2)cc1 (stereo not given in full),inactive,
COc1ccccc1C(=O)Nc1cccc(Oc2c(F)c(F)c(F)c(F)c2F)c1,inactive,
CCc1ccc(NC(=O)c2cc(C)on2)cc1,inactive,
O=C(COc1ccccc1)Nc1ccc(S(=O)(=O)Nc2ncccn2)cc1,inactive,
O=C(CNS(=O)(=O)c1ccc([N+](=O)[O-])cc1)N/N=C\c1ccc(O)cc1,inactive,
CCN1CCN(S(=O)(=O)c2ccc3[nH]c(=O)oc3c2)CC1,inactive,
O=C(O)c1ccc(-c2ccc(O)c(F)c2)cc1,,AC50: > 39 µM (inactive)
O=C(c1ccccc1)c1coc2ccc(O)c(Cl)c12,,AC50: > 39 µM (inactive)
Cn1c(=O)[nH]c(=O)c2c1[nH]c(=S)n2Cc1ccc(Cl)cc1,inactive,
COc1cccc(-n2c(SCC(=O)N3CCOCC3)nnc2-c2c[nH]c3ccccc23)c1,inactive,
CCOc1cc(NC(=S)NCC2CCCO2)c(OCC)cc1NC(=O)c1ccc(F)cc1 (stereo not given),inactive,

SMILES,"activity change, negative = inhibition (at 19.5 µM (top of the series))",also measured
COc1cc(/C=N/N2C(=O)C3C4C=CC(CC4)C3C2=O)ccc1O (stereo not given),inactive,
c1ccc2[nH]c(-c3ccc4c(c3)OCO4)nc2c1,inactive,
C/C(=N\NC(N)=S)c1ccc2c(c1)OCCO2,inactive,
O=C(CNS(=O)(=O)c1ccccc1)N/N=C/c1ccc(O)cc1,inactive,
NC(=O)Nc1ccc(Nc2ccccc2)cc1,inactive,
CC(=O)Nc1ccccc1O,inactive,
CCCn1c(N)c(C(=O)COC(=O)c2cccc(S(=O)(=O)N3CCOCC3)c2)c(=O)[nH]c1=O,inactive,
CCN(CC)C(=O)C1CCN(S(=O)(=O)c2c(C)noc2/C=C/c2cccc(C)c2)CC1,inactive,
COc1ccc(C(=O)/C=C/c2ccc(O)cc2)c2c1CC(O)C(C)(C)O2 (stereo not given),,AC50: > 39 µM (inactive)
CCCCc1[nH]c(=O)c(C#N)c2c1CCCC2,inactive,
C[C@H](CO)N1C[C@H](C)[C@@H](CN(C)C(=O)Nc2ccc(C(F)(F)F)cc2)Oc2c(NS(=O)(=O)c3cccs3)cccc2C1=O,,AC50: > 39 µM (inactive)
S=c1nc(-c2ccc(Cl)cc2)[nH][nH]1,inactive,
COc1cc([N+](=O)[O-])ccc1NC(=O)Oc1ccc(NC(C)=O)cc1,inactive,
COc1ccc(C(CNC(=O)c2oc3ccc(OC)cc3c2C)N2CCCC2)cc1 (stereo not given),inactive,
ONC(=Nc1ccccc1Cl)c1ccccc1Cl,,AC50: > 39 µM (inactive)
Cc1cc(C)c(C)c(S(=O)(=O)N2CCCCC2C(=O)O)c1C (stereo not given),inactive,
CCc1ccccc1NC(=S)N(Cc1ccc(C(=O)O)cc1)Cc1ccc(OC)c(OC)c1,inactive,
COc1ccc(C2=NS(=O)(=O)N(C)C(C(=O)N3CCOCC3)=C2)cc1,inactive,
O=C(CSc1nnc(-c2ccncc2)o1)N1CCCCCC1,inactive,
O=C(CC(=O)N/N=C/c1ccc(O)cc1)N/N=C/c1ccc(O)cc1,inactive,
Cc1nn2cc(-c3cccc(Cl)c3)cnc2c1Br,inactive,
CC(=O)Nc1ccc(Oc2nc(-c3ccccn3)nc3ccccc23)cc1,inactive,
Cc1nn(C)cc1-c1n[nH]c(=S)n1-c1ccc(F)cc1,inactive,

SMILES,"activity change, negative = inhibition (at 19.5 µM (top of the series))",also measured
O=S(=O)(Cc1cccc(F)c1)c1c[nH]c2ccccc12,inactive,
COc1cc(NC(=O)CCc2nnc3ccc(N4CCC(C)CC4)nn23)cc(OC)c1,inactive,
CC(C)(C)OCC(O)CN1CCN(C(=O)c2ccccc2)CC1 (stereo not given),inactive,
O=c1[nH]nc(-c2cc(-c3ccccc3)nc3ccccc23)o1,inactive,
COc1ccc(C(NC(C)=O)c2cc(Cl)c3cccnc3c2O)cc1 (stereo not given),inactive,
CN1/C(=C/C=C/c2n(C)c3cc([N+](=O)[O-])c([N+](=O)[O-])cc3[n+]2C)C(C)(C)c2ccccc21,,AC50: > 39 µM (inactive)
CN1c2ccc(-c3ccccc3)cc2[C@@H]2[C@@H](CCN2C(=O)CN2CCOCC2)[C@@H]1CO,,AC50: > 39 µM (inactive)
O=C(OCC(=O)N1CCCc2ccccc21)c1ccc(C(F)(F)F)cc1,inactive,
O=C(CCNC(=O)c1ccccc1Cl)N/N=C\c1ccc(O)cc1,inactive,
C[C@H](CO)N1C[C@H](C)[C@H](CN(C)Cc2ccc(Oc3ccccc3)cc2)Oc2cc(-c3ccncc3)ccc2S1(=O)=O,inactive,
CCCCn1c(N)c(N(CC)C(=O)c2cccs2)c(=O)[nH]c1=O,inactive,
COc1cc(/C=N/NC(=O)Cn2nnc3ccccc32)ccc1O,inactive,
COCCn1c(NC(=S)NC(=O)C2CC2)cc(=O)[nH]c1=O,inactive,
COCC#Cc1ccc2c(c1)O[C@@H](CN(C)C(=O)CC1CC1)[C@H](C)CN([C@@H](C)CO)S2(=O)=O,inactive,
CC(C)Cc1[nH]c(=O)c(C#N)c2c1CCC2,inactive,
CC1(C)CCC/C(=C\c2ccccc2)C1=O,inactive,
O=c1[nH]c(CSc2nnc(Cc3ccccc3)o2)nc2ccccc12,inactive,
COC(=O)c1sc2nc(SCc3ccccc3C)n(N)c(=O)c2c1C,inactive,
COc1ccc(C)cc1NC(=O)C(OC(=O)C1=NNC(=O)CC1)c1ccccc1 (stereo not given),inactive,
Cc1ccccc1NS(=O)(=O)c1ccc(OCC(=O)N2CCCCC2)cc1,inactive,
CN(C)CC(=O)N1CC[C@@H]2[C@H]1c1cc(-c3ccccc3)ccc1N(C)[C@H]2CO,,"activity change, negative = inhibition (at 21 µM (top of the series)): inactive"
